Data on one molecule can be found in PMC8760490, “Discovery of novel furanylbenzamide inhibitors that target oncogenic tyrosine phosphatase SHP2 in leukemia cells” (The Journal of Biological Chemistry, 2021).

For assay [1], the system named is phospho-ERK1/2 (p-ERK1/2) in MOLM-13 AML cells. As to the kind of experiment: p-ERK1/2 immunoblot, MOLM-13. It is filed as cell-based. The following applies: 3 h; SBI-4668 3, 10, 30 μM; RMC-4550 1 μM. Here is the method: (§1) Because SHP2 activity is critical for ERK activation, we used phospho-ERK1/2 (p-ERK1/2) as a more direct readout of SHP2 inhibitor efficacy. […] This p-ERK rebound in MOLM-13 cells treated with RMC-4550 is reminiscent of previously reported data from human hepatoma Hep3B cells treated with SHP099 ([34]). We also tested the effects of SBI-4668 or RMC-4550 on two patient-derived AML samples (Fig. 4F).
Cells cultured in RPMI medium were treated as indicated in the legends to the figures. Total protein extracts were prepared in modified radioimmunoprecipitation assay lysis buffer (25 mM Tris–HCl, pH 7.4, 10% glycerol, 0.2% Triton X-100, 150 mM NaCl, 2 mM Na3VO4, and 1 mM EDTA) containing a protease inhibitor cocktail (Roche Applied Science). Equal amounts of protein were separated on 4 to 12% (p-ERK1/2 blots) or 4 to 20% (SHP2 blots) Bis–Tris gels by SDS-PAGE and transferred to nitrocellulose (p-ERK1/2 blots) or 0.2 μm polyvinylidene fluoride (SHP2 blots) membranes. Membranes were blocked in 5% dry milk (Bio-Rad) in Tris-buffered saline–Tween-20 (TBS–T) (0.1% v/v) for 1 h at RT. Protein-bound membranes were incubated with indicated primary antibody overnight at 4 °C. After washing three times with TBS-T, membranes were incubated for 1 h with horseradish peroxidase–conjugated secondary antibody and then visualized by an ECL Prime detection system (GE Healthcare). Immunoblotting experiments were carried out at least three times, and representative images are shown. Densitometric quantitation of immunoblots was performed using Image Studio Lite Software (LI-COR). Changes of phosphorylated ERK1/2 to total ERK1/2 ratios are expressed as percentage of the vehicle-treated controls. The following antibodies were used: Phospho-Erk1/2 Ab (catalog no.: 9101S; Cell Signaling); total Erk1/2 Ab (catalog no.: 9102S; Cell Signaling); SHP2 Ab (catalog no.: A301-544A; lot no.: 1; Bethyl); and GAPDH (14C10) mAb (catalog no.: 2118S; lot no.: 14; Cell Signaling).
For orientation: Immunoblotting shows a protein as a band on a membrane.

Assay [2] relates to mutant SHP2 (E76K) in live cells. On the set-up: method as in PMID 31953320, PMID 32744526. The following applies: cellular thermal shift assay; cited from earlier work.
Assay [3] relates to phospho-ERK1/2 (p-ERK1/2) in U-937 AML cells. The experiment in a line: p-ERK1/2 immunoblot, U-937. The assay is classed as cell-based. The following applies: SBI-4668 1, 3, 10, 30 μM, RMC-4550 1 μM. The source says:
(§2) Oncogenic gain-of-function mutations in SHP2 drive leukemogenesis in a significant number of leukemia patients. However, because of their unique mechanism of action, the existing SHP2 allosteric inhibitors lack activity against the most common SHP2 oncogenic variants. Thus, we tested whether our inhibitors could inhibit the growth of leukemia cells expressing oncogenic SHP2 variants. […] Thus, we tested both SBI-4668 and RMC-4550 on U-937 AML cells, which harbor a G60R oncogenic mutation in SHP2. We treated cells with either SBI-4668 or RMC-4550 at various concentrations, ranging from 0.123 to 30 μM (Fig. 5A). […] We also assessed the effects of SBI-4668 and RMC-4550 on ERK1/2 activation in the SHP2 mutant U-937 cell line. Similar to the immunoblot experiments described for MOLM-13 cells above, U-937 AML cells were treated with either vehicle control (DMSO), SBI-4668 (1, 3, 10, or 30 μM), or with RMC-4550 (1 μM) for 24 h and processed for p-ERK1/2 immunoblot analysis (Fig. 5B).
Cells cultured in RPMI medium were treated as indicated in the legends to the figures. […] Densitometric quantitation of immunoblots was performed using Image Studio Lite Software (LI-COR). Changes of phosphorylated ERK1/2 to total ERK1/2 ratios are expressed as percentage of the vehicle-treated controls. […]

Assay [4] concerns U-937 AML cells (G60R oncogenic mutation in SHP2). The experiment in a line: Cell viability (CellTiter-Glo), U-937. It is filed as cell-based. The following applies: 3 days, 0.123 to 30 μM.
From the text: as §2, with “Similar to the immunoblot experiments described for MOLM-13 cells above, U-937 AML cells were treated with either vehicle control (DMSO), SBI-4668 (1, 3, 10, or 30 μM), or with RMC-4550 (1 μM) for 24 h and processed for p-ERK1/2 immunoblot analysis (Fig. 5B).” left out
(§3) Viability of AML and esophageal carcinoma cells was assessed using the ATP-depletion assay CellTiter-Glo (Promega). Cells were harvested at 1 × 10^6/ml to 2 × 10^6 cells/ml with cell numbers determined by trypan blue using the Countess Cell counter (Thermo Scientific) and resuspended in culture media. […] Luminescence was read on a Tecan Spark Multimode Microplate Reader, and data were analyzed using GraphPad Prism software.
For orientation: Cellular ATP, detected with luciferase, serves as a proxy for viable cell number.

In assay [5] the test system is patient-derived AML cells. As to the kind of experiment: Viability of patient-derived AML cells. The following applies: 10 μM; 2, 4 or 6 days in culture. The assay is classed as cell-based, human.
From the text: as §1
Patient-derived AML cells were obtained from Carol Burian and Dr James Mason (Scripps MD Anderson Center) under approved Institutional Review Board protocol 13-6180. […] Final peripheral blood mononuclear cells were resuspended in Bambanker serum-free freezing medium (Wako Pure Chemical Industries, Ltd) and stored frozen before cell viability was assessed as described later.
as §3

As usually defined, the IC50 is the concentration needed to halve the response being measured. A high value points to a need for much substance. For the molecule `Cc1nc(N2CCC3(CC2)CO[C@@H](C)[C@H]3N)c(CO)nc1-c1cccc(Cl)c1Cl` [RMC-4550, reference compound], in assay [1], the “p-ERK1/2 levels, MOLM-13, 3 h” value is “highly effective in impeding ERK1/2 activation”. Also, in assay [2], the “cellular target engagement with mutant SHP2” value is listed as “greatly decreased cellular target engagement”. In assay [3], the “p-ERK1/2 levels, U-937, 24 h” value is “not detectable”. For the same molecule, the IC50 in assay [4] worked out at 33 µM. Further, the “growth of two patient-derived AML samples” value in assay [5] was “only affected the growth of sample 2”.
